Source: patent publication US20230373935A1, “MODULATORS OF CYSTIC FIBROSIS TRANSMEMBRANE CONDUCTANCE REGULATOR” (VERTEX PHARMACEUTICALS INCORPORATED, priority 2020, published 2023)

Biological target: CFTR (Homo sapiens, UniProt P13569)
Assay: standard Ussing Chamber Assay for CFTR potentiator activity
Format: cell-based

Chain of CFTR (P13569 whole entry): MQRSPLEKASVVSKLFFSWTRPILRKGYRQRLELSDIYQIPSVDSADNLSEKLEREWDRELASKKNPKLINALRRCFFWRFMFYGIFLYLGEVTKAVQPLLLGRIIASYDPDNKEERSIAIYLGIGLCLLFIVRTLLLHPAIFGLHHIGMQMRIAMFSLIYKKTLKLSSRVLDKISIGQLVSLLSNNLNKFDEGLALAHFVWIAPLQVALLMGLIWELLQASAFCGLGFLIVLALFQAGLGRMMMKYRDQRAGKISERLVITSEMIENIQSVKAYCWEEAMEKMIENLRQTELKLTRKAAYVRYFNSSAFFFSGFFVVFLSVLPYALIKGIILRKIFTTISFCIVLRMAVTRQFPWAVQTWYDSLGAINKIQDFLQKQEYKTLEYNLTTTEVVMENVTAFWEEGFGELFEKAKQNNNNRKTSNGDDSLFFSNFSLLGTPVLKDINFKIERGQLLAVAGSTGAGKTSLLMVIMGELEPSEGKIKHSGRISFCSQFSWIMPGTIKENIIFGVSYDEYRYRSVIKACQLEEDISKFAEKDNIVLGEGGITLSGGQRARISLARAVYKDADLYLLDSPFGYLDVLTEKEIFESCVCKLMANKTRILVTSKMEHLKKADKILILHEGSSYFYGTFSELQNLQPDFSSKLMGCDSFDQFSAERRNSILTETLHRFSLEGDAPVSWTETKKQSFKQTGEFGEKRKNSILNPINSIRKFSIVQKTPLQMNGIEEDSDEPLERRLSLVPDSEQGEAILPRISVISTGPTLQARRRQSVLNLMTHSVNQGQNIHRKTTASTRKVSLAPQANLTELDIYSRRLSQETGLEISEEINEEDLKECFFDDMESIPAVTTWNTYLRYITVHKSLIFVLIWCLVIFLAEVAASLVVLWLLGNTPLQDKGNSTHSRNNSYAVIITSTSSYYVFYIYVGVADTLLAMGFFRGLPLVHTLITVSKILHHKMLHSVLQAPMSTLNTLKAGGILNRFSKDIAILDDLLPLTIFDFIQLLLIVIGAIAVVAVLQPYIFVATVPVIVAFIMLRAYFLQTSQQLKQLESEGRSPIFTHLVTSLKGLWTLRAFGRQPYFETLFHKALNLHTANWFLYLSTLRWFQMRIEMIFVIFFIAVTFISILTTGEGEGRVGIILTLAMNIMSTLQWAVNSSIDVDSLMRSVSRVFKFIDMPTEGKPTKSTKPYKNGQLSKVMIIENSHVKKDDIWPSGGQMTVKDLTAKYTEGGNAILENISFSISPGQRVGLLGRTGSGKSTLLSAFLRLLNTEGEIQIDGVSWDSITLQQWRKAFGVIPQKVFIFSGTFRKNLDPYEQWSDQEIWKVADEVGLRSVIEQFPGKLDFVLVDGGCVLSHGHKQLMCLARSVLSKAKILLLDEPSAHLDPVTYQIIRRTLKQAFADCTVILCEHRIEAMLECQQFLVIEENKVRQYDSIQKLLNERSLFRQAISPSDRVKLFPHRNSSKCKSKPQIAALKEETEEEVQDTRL

With C[C@@H]1CCCCC[C@](O)(C(F)(F)F)C2=NN=C(O2)c2nc(c(C(F)(F)F)cc2N)O1 [(6R,12R)-17-amino-12-methyl-6,15-bis(trifluoromethyl)-13,19-dioxa-3,4,18-triazatricyclo[12.3.1.12,5]nonadeca-1(18),2,4,14,16-pentaen-6-ol] the CFTR modulatory activity was “confirmed”.
